Source: the supplement of paper PMC4862054

What follows are molecules tested on MDA-MB-468 (assay: normalised response (% of control), CellTiter-Glo; higher = more viable cells (100 = DMSO, 0 = benzethonium chloride kill control)). Details: incubation time: 72 h.
Experimental: (§1)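 DSRT, 72 h incubation, CellTox Green / CellTiter-Glo readout. Signal is normalised to DMSO and benzethonium chloride controls. Value is the normalised response at dose 3.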
Cc1cc2c(F)c(Oc3ncnn4cc(OC[C@@H](C)O)c(C)c34)ccc2[nH]1 [Brivanib] (10 nM) gave a normalised response of 105%.
In the case of Nc1nc(Cl)nc2c1ncn2[C@@H]1O[C@H](CO)[C@@H](O)[C@@H]1F [Clofarabine] (100 nM), the normalised response is reported as 94.3%.
With CCN(CC)CCOc1ccc(C(=C(Cl)c2ccccc2)c2ccccc2)cc1 [Clomifene] (100 nM) the normalised response was 94.1%.
Molecule NC1(c2ccc(-c3nc4ccn5c(=O)[nH]nc5c4cc3-c3ccccc3)cc2)CCC1 [MK-2206] (10 nM) has a normalised response of 102%.
With NC(=O)c1cccc2cn(-c3ccc([C@@H]4CCCNC4)cc3)nc12 [MK-4827] (100 nM) the normalised response was 94.7%.
O=C(c1cc(Cc2n[nH]c(=O)c3ccccc23)ccc1F)N1CCN(C(=O)C2CC2)CC1 [Olaparib] (100 nM) gave a normalised response of 105%.
CN1CCN(c2nc(C3=C(c4c[nH]c5ccccc45)C(=O)NC3=O)c3ccccc3n2)CC1 [Sotrastaurin] (100 nM) gave a normalised response of 99.3%.
For COc1cc2c(N3CCN(C(=O)Nc4ccc(OC(C)C)cc4)CC3)ncnc2cc1OCCCN1CCCCC1 [Tandutinib] (10 nM), the normalised response was 103%.
CN1CCc2c(c3ccccc3n2Cc2ccc(C(=O)NO)cc2)C1 [Tubastatin A] (100 nM) showed a normalised response of 95.3%.

The molecules below were run on HDQ-P1 in the same assay as above. Details: incubation time: 72 h.
Experimental: as §1
With Cc1cc2c(F)c(Oc3ncnn4cc(OC[C@@H](C)O)c(C)c34)ccc2[nH]1 [Brivanib] (10 nM) the normalised response was 99.5%.
Molecule Nc1nc(Cl)nc2c1ncn2[C@@H]1O[C@H](CO)[C@@H](O)[C@@H]1F [Clofarabine] (100 nM) has a normalised response of 98.5%.
Work on CCN(CC)CCOc1ccc(C(=C(Cl)c2ccccc2)c2ccccc2)cc1 [Clomifene] (100 nM) yielded a normalised response of 99%.
NC1(c2ccc(-c3nc4ccn5c(=O)[nH]nc5c4cc3-c3ccccc3)cc2)CCC1 [MK-2206] (10 nM) gave a normalised response of 95.5%.
NC(=O)c1cccc2cn(-c3ccc([C@@H]4CCCNC4)cc3)nc12 [MK-4827] (100 nM) showed a normalised response of 101%.
Molecule O=C(c1cc(Cc2n[nH]c(=O)c3ccccc23)ccc1F)N1CCN(C(=O)C2CC2)CC1 [Olaparib] (100 nM) has a normalised response of 96.8%.
In the case of CN1CCN(c2nc(C3=C(c4c[nH]c5ccccc45)C(=O)NC3=O)c3ccccc3n2)CC1 [Sotrastaurin] (100 nM), the normalised response is reported as 96.1%.
For COc1cc2c(N3CCN(C(=O)Nc4ccc(OC(C)C)cc4)CC3)ncnc2cc1OCCCN1CCCCC1 [Tandutinib] (10 nM), the normalised response was 99.7%.
CN1CCc2c(c3ccccc3n2Cc2ccc(C(=O)NO)cc2)C1 [Tubastatin A] (100 nM) showed a normalised response of 95.4%.

These molecules were tested on HCC1599 in the same assay as above. Details: incubation time: 72 h.
Experimental: as §1
Molecule Cc1cc2c(F)c(Oc3ncnn4cc(OC[C@@H](C)O)c(C)c34)ccc2[nH]1 [Brivanib] (10 nM) has a normalised response of 104%.
For Nc1nc(Cl)nc2c1ncn2[C@@H]1O[C@H](CO)[C@@H](O)[C@@H]1F [Clofarabine] (100 nM), the normalised response was 76.2%.
CCN(CC)CCOc1ccc(C(=C(Cl)c2ccccc2)c2ccccc2)cc1 [Clomifene] (100 nM) gave a normalised response of 87.8%.
Work on NC1(c2ccc(-c3nc4ccn5c(=O)[nH]nc5c4cc3-c3ccccc3)cc2)CCC1 [MK-2206] (10 nM) yielded a normalised response of 84.7%.
NC(=O)c1cccc2cn(-c3ccc([C@@H]4CCCNC4)cc3)nc12 [MK-4827] (100 nM) showed a normalised response of 90%.
O=C(c1cc(Cc2n[nH]c(=O)c3ccccc23)ccc1F)N1CCN(C(=O)C2CC2)CC1 [Olaparib] (100 nM) gave a normalised response of 103%.
CN1CCN(c2nc(C3=C(c4c[nH]c5ccccc45)C(=O)NC3=O)c3ccccc3n2)CC1 [Sotrastaurin] (100 nM) gave a normalised response of 99.1%.
COc1cc2c(N3CCN(C(=O)Nc4ccc(OC(C)C)cc4)CC3)ncnc2cc1OCCCN1CCCCC1 [Tandutinib] (10 nM) was tested, and the normalised response was 106%.
Molecule CN1CCc2c(c3ccccc3n2Cc2ccc(C(=O)NO)cc2)C1 [Tubastatin A] (100 nM) has a normalised response of 99.2%.

These molecules were tested on DU-4475 in the same assay as above. Details: incubation time: 72 h.
Experimental: as §1
Cc1cc2c(F)c(Oc3ncnn4cc(OC[C@@H](C)O)c(C)c34)ccc2[nH]1 [Brivanib] (10 nM) showed a normalised response of 99.6%.
With Nc1nc(Cl)nc2c1ncn2[C@@H]1O[C@H](CO)[C@@H](O)[C@@H]1F [Clofarabine] (100 nM) the normalised response was 99.4%.
In the case of CCN(CC)CCOc1ccc(C(=C(Cl)c2ccccc2)c2ccccc2)cc1 [Clomifene] (100 nM), the normalised response is reported as 103%.
With NC1(c2ccc(-c3nc4ccn5c(=O)[nH]nc5c4cc3-c3ccccc3)cc2)CCC1 [MK-2206] (10 nM) the normalised response was 102%.
Work on NC(=O)c1cccc2cn(-c3ccc([C@@H]4CCCNC4)cc3)nc12 [MK-4827] (100 nM) yielded a normalised response of 99.8%.
O=C(c1cc(Cc2n[nH]c(=O)c3ccccc23)ccc1F)N1CCN(C(=O)C2CC2)CC1 [Olaparib] (100 nM) showed a normalised response of 95.8%.
CN1CCN(c2nc(C3=C(c4c[nH]c5ccccc45)C(=O)NC3=O)c3ccccc3n2)CC1 [Sotrastaurin] (100 nM) gave a normalised response of 94.3%.
With COc1cc2c(N3CCN(C(=O)Nc4ccc(OC(C)C)cc4)CC3)ncnc2cc1OCCCN1CCCCC1 [Tandutinib] (10 nM) the normalised response was 97.1%.
For CN1CCc2c(c3ccccc3n2Cc2ccc(C(=O)NO)cc2)C1 [Tubastatin A] (100 nM), the normalised response was 102%.

What follows are molecules tested on SK-BR-3 in the same assay as above. Details: incubation time: 72 h.
Experimental: as §1
Cc1cc2c(F)c(Oc3ncnn4cc(OC[C@@H](C)O)c(C)c34)ccc2[nH]1 [Brivanib] (10 nM) gave a normalised response of 115%.
Nc1nc(Cl)nc2c1ncn2[C@@H]1O[C@H](CO)[C@@H](O)[C@@H]1F [Clofarabine] (100 nM) showed a normalised response of 82.6%.
Work on CCN(CC)CCOc1ccc(C(=C(Cl)c2ccccc2)c2ccccc2)cc1 [Clomifene] (100 nM) yielded a normalised response of 104%.
NC1(c2ccc(-c3nc4ccn5c(=O)[nH]nc5c4cc3-c3ccccc3)cc2)CCC1 [MK-2206] (10 nM) showed a normalised response of 93.8%.
